{
  "source": "paper PMC5695669",
  "about": "(Journal of medicinal chemistry, 2012)",
  "origin": "cited, not measured here",
  "key": {"[1]": {"test_system": "guinea pig ileum longitudinal muscle-myenteric plexus", "conditions": "read-out: GPI (IC50); functional bioactivity, ±SEM; ref [3]"}, "rMor (μ opioid receptor)": {"target": "rMor (μ opioid receptor) (Rattus norvegicus, UniProt P33535)", "sequence (P33535 whole entry)": "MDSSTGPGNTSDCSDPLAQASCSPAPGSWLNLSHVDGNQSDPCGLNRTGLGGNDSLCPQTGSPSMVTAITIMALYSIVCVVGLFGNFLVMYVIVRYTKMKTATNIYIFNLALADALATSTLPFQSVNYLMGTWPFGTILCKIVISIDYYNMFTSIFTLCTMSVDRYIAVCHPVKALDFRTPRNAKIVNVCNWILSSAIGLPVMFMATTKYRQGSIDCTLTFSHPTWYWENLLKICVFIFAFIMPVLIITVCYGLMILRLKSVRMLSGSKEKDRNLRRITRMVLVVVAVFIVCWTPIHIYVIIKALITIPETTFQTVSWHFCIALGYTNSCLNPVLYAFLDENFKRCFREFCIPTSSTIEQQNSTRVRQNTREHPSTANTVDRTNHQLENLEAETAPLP", "conditions": "[3H]DAMGO, ±SEM, ref [3]"}},
  "data": [
    {"substance": "H-Tyr-Pro-Phe-Phe-NH2 (H-YPFF-NH2) [EM-2]", "values": [
      {"measurement": "IC50", "setting": "[1]", "value": "15 ± 2", "unit": "nM"},
      {"measurement": "Ki", "setting": "rMor (μ opioid receptor)", "value": "9.6 ± 0.98", "unit": "nM"}
    ]}
  ]
}
